Measured values: ChEMBL document CHEMBL1131919, “Monocarboxylic-based phosphotyrosyl mimetics in the design of GRB2 SH2 domain inhibitors” (Bioorg Med Chem Lett, 1999)
pIC50: −log10 of the molar value.

What follows are compounds tested against Growth factor receptor-bound protein 2 (Homo sapiens, UniProt P62993) (assay: Inhibitory concentration against Growth factor receptor bound protein 2 in MDA-MB-453 cells).
Format: cell-based

Growth factor receptor-bound protein 2, sequence (P62993 whole entry): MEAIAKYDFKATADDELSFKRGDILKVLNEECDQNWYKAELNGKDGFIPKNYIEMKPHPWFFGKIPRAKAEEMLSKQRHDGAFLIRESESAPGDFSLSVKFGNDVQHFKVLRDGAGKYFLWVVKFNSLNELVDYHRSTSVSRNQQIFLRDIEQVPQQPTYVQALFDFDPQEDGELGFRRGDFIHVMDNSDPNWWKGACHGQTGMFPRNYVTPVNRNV

Point of comparison: `NC(=O)C[C@H](NC(=O)C1(NC(=O)[C@@H](Cc2ccc(OCC(=O)O)cc2)NC(=O)C(=O)O)CCCCC1)C(=O)NCCCc1cccc2ccccc12`, pIC50 4.82. Against it:
- NC(Cc1ccc(OCC(=O)O)cc1)C(=O)O (stereo not given) — 0.78 log units higher, 5.60
- NC(Cc1ccc(CC(=O)O)cc1)C(=O)O (stereo not given) — 0.63 log units lower, 4.19
- NC(Cc1ccc(C(F)(F)C(=O)O)cc1)C(=O)O (stereo not given) — 0.27 log units lower, 4.55
- NC(=O)C[C@H](NC(=O)C1(NC(=O)[C@@H](Cc2ccc(C(F)(F)C(=O)O)cc2)NC(=O)C(=O)O)CCCCC1)C(=O)NCCCc1cccc2ccccc12 — 0.88 log units higher, 5.70
- NC(=O)C[C@H](NC(=O)C1(NC(=O)[C@@H](Cc2ccc(CC(=O)O)cc2)NC(=O)C(=O)O)CCCCC1)C(=O)NCCCc1cccc2ccccc12 — 1.40 log units higher, 6.22
- CC(=O)N[C@H](Cc1ccc(OP(=O)(O)O)cc1)C(=O)NC1(C(=O)N[C@@H](CC(N)=O)C(=O)NCCCc2cccc3ccccc23)CCCCC1 — 3.33 log units higher, 8.15
- CC(=O)N[C@H](Cc1ccc(C(F)(F)C(=O)O)cc1)C(=O)NC1(C(=O)N[C@@H](CC(N)=O)C(=O)NCCCc2cccc3ccccc23)CCCCC1 — 0.27 log units lower, 4.55
- CC(=O)N[C@H](Cc1ccc(OCC(=O)O)cc1)C(=O)NC1(C(=O)N[C@@H](CC(N)=O)C(=O)NCCCc2cccc3ccccc23)CCCCC1 — 0.63 log units lower, 4.19
- CC(=O)N[C@H](Cc1ccc(CC(=O)O)cc1)C(=O)NC1(C(=O)N[C@@H](CC(N)=O)C(=O)NCCCc2cccc3ccccc23)CCCCC1 — 0.78 log units higher, 5.60
